From ChEMBL document CHEMBL1165876, “Novel bis-phenanthridine derivatives with easily tunable linkers, study of their interactions with DNA and screening of antiproliferative activity” (Eur J Med Chem, 2010)
In brackets after ≈: the same amount, converted by molar mass.

What was measured:
[1] = Solubility in water; format: physicochemical
[2] = tested on: Calf thymus DNA; test: Binding affinity to calf thymus DNA assessed as change in melting temperature in citric acid/NaOH buffer ayt pH 5 at [compound]/[DNA] ratio of 0.2 by tangent method; format: nucleic-acid assay; settings: Bos taurus
[3] = tested on: Calf thymus DNA; test: Binding affinity to calf thymus DNA assessed as change in melting temperature in citric acid/NaOH buffer ayt pH 5 at [compound]/[DNA] ratio of 0.3 by tangent method; format: nucleic-acid assay; settings: Bos taurus
[4] = tested on: Calf thymus DNA; test: Binding affinity to calf thymus DNA assessed as fluorescence quenching at pH 5 by fluorimetric titration; format: nucleic-acid assay; settings: Bos taurus
[5] = tested on: Calf thymus DNA; test: Binding affinity to calf thymus DNA assessed as change in melting temperature in citric acid/NaOH buffer ayt pH 5 at [compound]/[DNA] ratio of 0.1 by tangent method; format: nucleic-acid assay; settings: Bos taurus
[6] = tested on: MIA PaCa-2; test: Cytotoxicity against human MIAPaCa2 cells after 72 hrs by MTT assay; format: functional, cell-based; settings: MIA PaCa-2, 72 h
[7] = tested on: HeLa; test: Cytotoxicity against human HeLa cells after 72 hrs by MTT assay; format: functional, cell-based
[8] = tested on: NCI-H460; test: Cytotoxicity against human H460 cells after 72 hrs by MTT assay; format: functional, cell-based; settings: NCI-H460, 72 h
[9] = tested on: SW-620; test: Cytotoxicity against human SW620 cells after 72 hrs by MTT assay; format: functional, cell-based; settings: SW-620, 72 h
[10] = tested on: MCF7; test: Cytotoxicity against human MCF7 cells after 72 hrs by MTT assay; format: functional, cell-based; settings: MCF7, 72 h
[11] = tested on: Calf thymus DNA; test: Binding affinity to calf thymus DNA assessed as fluorescence quenching at pH 7 by fluorimetric titration; format: nucleic-acid assay; settings: Bos taurus

| Compound | solubility [1] [µM] | ΔTm [2] [°C] | ΔTm [3] [°C] | log Ks [4] | ΔTm [5] [°C] | IC50 [6] [µM] | IC50 [7] [µM] | IC50 [8] [µM] | IC50 [9] [µM] | IC50 [10] [µM] | log Ks [11] |
| --- | --- | --- | --- | --- | --- | --- | --- | --- | --- | --- | --- |
| Cc1nc2ccccc2c2ccc(C[C@H](NC(=O)[C@@H](N)Cc3ccc4c(c3)c(C)nc3ccccc34)C(=O)O)cc12 | 1000 (≈ 543 µg/mL) | 11 | 11.3 | 6.7 | 8.6 | – | – | – | – | – | – |
| Cc1nc2ccccc2c2ccc(C[C@H](N)C(=O)O)cc12 | 1000 (≈ 280 µg/mL) | – | 4 | – | – | > 100 | > 100 | > 100 | > 100 | > 100 | – |
| Cc1nc2ccccc2c2ccc(C[C@H](NC(=O)CNC(=O)[C@@H](N)Cc3ccc4c(c3)c(C)nc3ccccc34)C(=O)O)cc12 | 1000 (≈ 600 µg/mL) | 16.5 | 18.4 | – | 14.3 | > 100 | > 100 | > 100 | > 100 | > 100 | – |
| Cc1nc2ccccc2c2ccc(C[C@H](NC(=O)CN)C(=O)O)cc12 | 1000 (≈ 337 µg/mL) | 8.1 | 11.1 | 5.5 | 6.5 | – | – | – | – | – | 4.7 |
